This note sets out measurements from ChEMBL document CHEMBL1156221, “A-ring modifications on the triazafluorenone core structure and their mGluR1 antagonist properties” (Bioorg Med Chem Lett, 2010).

For series [1], the target named is Metabotropic glutamate receptor 5 (Homo sapiens, UniProt P41594). Kind of series: Antagonist activity at human mGluR5. The format is functional.
The target of series [2] is Metabotropic glutamate receptor 1 (Homo sapiens, UniProt Q13255). Kind of series: Antagonist activity at human mGluR1. The format is functional.
In series [3] the target is Metabotropic glutamate receptor 1 (Rattus norvegicus). Nature of the series: Antagonist activity at rat mGluR1.
Series [4] in a line: Drug level in rat brain at 10 mg/kg, po after 6 hrs. The format is ADME, organism-based. On the set-up: dose 10 mg/kg, route oral. The settings on record: read-out: Drug uptake.
Series [5] is described as follows: AUC in rat at 10 mg/kg, po by LC/API-MS/MS. The format is ADME, organism-based. On the set-up: dose 10 mg/kg, route oral. As to conditions: plasma.
A further series in a line: in vivo. As to conditions: rat, brain/plasma, po, 10 mg/kg.
Series [6] deals with Metabotropic glutamate receptor 1 (Rattus norvegicus, UniProt P23385). Kind of series: Antagonist activity at rat mGluR1. The format is functional.
Chain of Metabotropic glutamate receptor 1 (Rattus norvegicus, UniProt P23385) (P23385 whole entry, looked up): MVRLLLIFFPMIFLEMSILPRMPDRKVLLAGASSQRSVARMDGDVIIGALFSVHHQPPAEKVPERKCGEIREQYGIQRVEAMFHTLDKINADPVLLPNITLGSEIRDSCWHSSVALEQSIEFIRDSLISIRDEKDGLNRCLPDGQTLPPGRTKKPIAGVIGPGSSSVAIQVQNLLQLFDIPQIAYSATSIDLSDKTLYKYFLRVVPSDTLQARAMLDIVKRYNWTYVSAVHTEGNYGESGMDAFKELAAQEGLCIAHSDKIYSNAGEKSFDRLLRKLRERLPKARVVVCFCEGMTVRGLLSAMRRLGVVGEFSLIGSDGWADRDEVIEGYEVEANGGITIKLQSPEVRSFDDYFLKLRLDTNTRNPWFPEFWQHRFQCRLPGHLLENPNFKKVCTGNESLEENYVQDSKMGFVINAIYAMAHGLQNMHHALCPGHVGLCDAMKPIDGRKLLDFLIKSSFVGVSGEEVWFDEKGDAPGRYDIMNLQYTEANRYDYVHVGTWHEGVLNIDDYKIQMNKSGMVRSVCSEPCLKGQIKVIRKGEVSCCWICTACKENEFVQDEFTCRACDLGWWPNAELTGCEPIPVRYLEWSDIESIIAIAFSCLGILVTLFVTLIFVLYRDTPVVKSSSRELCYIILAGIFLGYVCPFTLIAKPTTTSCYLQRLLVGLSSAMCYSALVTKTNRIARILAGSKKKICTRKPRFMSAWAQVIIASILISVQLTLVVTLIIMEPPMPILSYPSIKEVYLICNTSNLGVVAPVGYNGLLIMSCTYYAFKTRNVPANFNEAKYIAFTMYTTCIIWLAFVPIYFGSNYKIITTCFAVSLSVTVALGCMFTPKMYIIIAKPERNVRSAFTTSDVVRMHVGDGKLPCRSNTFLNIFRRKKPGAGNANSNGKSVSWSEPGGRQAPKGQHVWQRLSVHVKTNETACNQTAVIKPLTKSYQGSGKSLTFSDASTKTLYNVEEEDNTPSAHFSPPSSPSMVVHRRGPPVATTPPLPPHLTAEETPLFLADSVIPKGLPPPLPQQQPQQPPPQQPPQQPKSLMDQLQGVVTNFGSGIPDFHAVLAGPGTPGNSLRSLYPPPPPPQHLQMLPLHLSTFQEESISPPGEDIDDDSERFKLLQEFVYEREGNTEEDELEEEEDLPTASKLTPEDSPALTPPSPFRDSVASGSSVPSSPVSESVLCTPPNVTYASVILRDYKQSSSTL

Chain of Metabotropic glutamate receptor 5 (P41594 whole entry): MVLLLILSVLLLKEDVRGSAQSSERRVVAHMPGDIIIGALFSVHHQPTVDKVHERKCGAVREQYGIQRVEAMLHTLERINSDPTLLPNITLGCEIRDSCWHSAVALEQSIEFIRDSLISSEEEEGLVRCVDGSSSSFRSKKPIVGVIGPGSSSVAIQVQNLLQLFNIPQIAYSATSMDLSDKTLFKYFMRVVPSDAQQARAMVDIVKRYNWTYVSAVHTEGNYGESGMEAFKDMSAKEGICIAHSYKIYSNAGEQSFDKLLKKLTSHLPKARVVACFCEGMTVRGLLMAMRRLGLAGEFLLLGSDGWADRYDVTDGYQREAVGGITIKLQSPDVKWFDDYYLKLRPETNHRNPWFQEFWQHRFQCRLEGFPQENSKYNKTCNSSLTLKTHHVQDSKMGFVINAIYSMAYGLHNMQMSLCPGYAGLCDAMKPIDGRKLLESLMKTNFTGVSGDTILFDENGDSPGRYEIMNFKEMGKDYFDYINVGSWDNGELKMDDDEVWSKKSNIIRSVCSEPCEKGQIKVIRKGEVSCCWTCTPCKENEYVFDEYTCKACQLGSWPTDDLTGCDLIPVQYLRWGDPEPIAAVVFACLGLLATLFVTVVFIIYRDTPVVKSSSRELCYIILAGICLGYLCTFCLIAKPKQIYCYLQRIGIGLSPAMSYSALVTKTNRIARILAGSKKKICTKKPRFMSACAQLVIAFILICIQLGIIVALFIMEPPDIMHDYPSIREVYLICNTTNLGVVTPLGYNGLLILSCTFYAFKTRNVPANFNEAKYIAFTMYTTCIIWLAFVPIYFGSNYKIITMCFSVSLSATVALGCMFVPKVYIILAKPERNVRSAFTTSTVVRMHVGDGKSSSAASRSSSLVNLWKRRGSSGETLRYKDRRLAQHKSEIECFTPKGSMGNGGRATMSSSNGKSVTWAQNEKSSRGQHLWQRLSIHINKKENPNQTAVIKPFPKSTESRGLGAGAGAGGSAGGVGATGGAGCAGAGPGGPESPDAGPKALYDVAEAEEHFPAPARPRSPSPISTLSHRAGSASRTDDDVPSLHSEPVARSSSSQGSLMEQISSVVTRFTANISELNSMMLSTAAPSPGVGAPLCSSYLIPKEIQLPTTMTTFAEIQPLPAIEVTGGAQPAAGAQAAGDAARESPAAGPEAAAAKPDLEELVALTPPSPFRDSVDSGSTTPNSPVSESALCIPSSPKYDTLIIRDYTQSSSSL
Chain of Metabotropic glutamate receptor 1 (Homo sapiens, UniProt Q13255) (Q13255 whole entry): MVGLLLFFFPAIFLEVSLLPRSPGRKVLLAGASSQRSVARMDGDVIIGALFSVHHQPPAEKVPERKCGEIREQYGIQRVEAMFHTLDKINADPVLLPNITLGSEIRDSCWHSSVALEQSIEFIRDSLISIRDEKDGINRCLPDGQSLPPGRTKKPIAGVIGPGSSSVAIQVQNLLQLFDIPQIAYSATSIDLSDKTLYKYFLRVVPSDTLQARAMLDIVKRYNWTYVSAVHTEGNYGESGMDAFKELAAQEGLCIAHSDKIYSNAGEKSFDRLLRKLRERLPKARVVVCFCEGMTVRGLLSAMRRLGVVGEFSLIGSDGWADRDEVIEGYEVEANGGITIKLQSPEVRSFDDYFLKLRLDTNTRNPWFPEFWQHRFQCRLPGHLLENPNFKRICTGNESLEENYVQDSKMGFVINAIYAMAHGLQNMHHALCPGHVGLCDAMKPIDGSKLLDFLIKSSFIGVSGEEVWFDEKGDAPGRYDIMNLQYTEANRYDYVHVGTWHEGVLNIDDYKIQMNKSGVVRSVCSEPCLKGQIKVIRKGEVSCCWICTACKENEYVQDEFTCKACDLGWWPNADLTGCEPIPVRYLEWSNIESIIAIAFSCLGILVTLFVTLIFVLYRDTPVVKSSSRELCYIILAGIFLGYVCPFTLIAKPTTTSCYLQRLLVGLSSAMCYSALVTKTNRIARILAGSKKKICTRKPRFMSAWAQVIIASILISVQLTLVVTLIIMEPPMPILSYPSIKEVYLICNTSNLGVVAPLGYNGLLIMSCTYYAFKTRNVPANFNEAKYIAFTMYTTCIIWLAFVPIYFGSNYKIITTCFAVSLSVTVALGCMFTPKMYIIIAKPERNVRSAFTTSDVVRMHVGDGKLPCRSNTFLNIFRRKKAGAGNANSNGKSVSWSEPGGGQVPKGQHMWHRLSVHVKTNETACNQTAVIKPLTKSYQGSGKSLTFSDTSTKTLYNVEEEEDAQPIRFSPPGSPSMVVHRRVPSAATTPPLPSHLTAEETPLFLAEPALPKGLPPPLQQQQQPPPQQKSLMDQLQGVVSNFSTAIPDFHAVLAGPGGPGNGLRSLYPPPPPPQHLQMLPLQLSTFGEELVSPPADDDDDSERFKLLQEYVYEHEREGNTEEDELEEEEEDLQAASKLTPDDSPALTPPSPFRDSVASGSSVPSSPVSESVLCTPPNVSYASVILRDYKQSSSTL
Description for in vivo: Ratio of drug level in brain to plasma in rat at 10 mg/kg, po

As a reminder, the IC50 is the concentration that inhibits the measured activity by half. On to `COc1ccc(-n2cnc3c(sc4nc(C)nc(N)c43)c2=O)cc1`, for which the IC50 was more than 3 µM in series [1] and 188 nM in series [2].
With `Cc1nc(N)c2c(n1)sc1c(=O)n(-c3ccc(Cl)cc3)cnc12`, the IC50 in series [1] was more than 3 µM; in series [2] it was 11 nM.
Compound `COc1ccc(-n2cnc3c(sc4nccc(N(C)C)c43)c2=O)cc1` came in with an IC50 in series [1] of more than 3 µM.
On to `Cc1ccc(-n2cnc3c(sc4[nH]c(=O)nc(N)c43)c2=O)cc1`, for which the figures for the IC50 in series [1] and in series [2] were more than 3 µM and more than 1000 nM, respectively.
What is called Ki is the equilibrium dissociation constant of an inhibitor or competing ligand from its target. A high value points to a looser hold on the target. Usually AUC stands for concentration integrated over time. Low readings indicate less exposure, high ones more exposure. The term Kp denotes the ratio of the level in a tissue or fluid to that in plasma or blood. `Cc1ccc(-n2cnc3c(sc4nc(C)nc(N)c43)c2=O)cc1`: the Ki in series [3] and in series [6] was 115 nM in each case. For the same compound, the half-inhibitory concentration (IC50) was more than 3 µM in series [1] and 27 nM in series [2]. Also, the concentration at 6 h in series [4] was 29 ng/g. In addition, in series [5], the AUC came out at 2110 ng·h/mL. Also, the Kp in “in vivo” stood at 0.2.
In the case of `Cc1ccc(-n2cnc3c(sc4nc(-n5cccc5)nc(N)c43)c2=O)cc1`, the values for the concentration for half-maximal inhibition (IC50) in series [1] and in series [2] were more than 3 µM and more than 1000 nM, respectively.
The matching figures for `Cc1ccc(-n2cnc3c(sc4nc(C5CC5)nc(N)c43)c2=O)cc1`: more than 3 µM and 326 nM.
Turning to `Cc1nc(N)c2c(n1)sc1c(=O)n(-c3ccccc3)cnc12`, the IC50 in series [1] is more than 3 µM; in series [2], 16 nM.
As for `Cc1ccc(-n2cnc3c(sc4nc(C(F)(F)F)nc(N)c43)c2=O)cc1`, the IC50 was more than 3 µM in series [1] and more than 1000 nM in series [2].
Take `Cc1nc(N)c2c(n1)sc1c(=O)n(-c3ccc(F)cc3)cnc12`: the IC50 was more than 3 µM in series [1] and 68 nM in series [2].
Compound `Cc1ccc(-n2cnc3c(sc4nc(N)nc(N)c43)c2=O)cc1` yielded an IC50 in series [1] of more than 3 µM. The concentration at 6 h in series [4] is 100 ng/g. The same compound registered an AUC in series [5] of 965 ng·h/mL. In addition, the concentration ratio (Kp) in “in vivo” was found to be 0.9.
Regarding `CNc1nc(N)c2c(n1)sc1c(=O)n(-c3ccc(C)cc3)cnc12`, the half-inhibitory concentration (IC50) in series [1] is more than 3 µM; in series [2], more than 1000 nM.
Turning to `Cc1ccc(-n2cnc3c(sc4nc(S)nc(N)c43)c2=O)cc1`, the figures for the IC50 in series [1] and in series [2] were more than 3 µM and 3.1 nM, respectively.
